Series [1] has as its target T1, JAK1 (Homo sapiens, UniProt P23458).
T1 construct: purchased Carna Biosciences
Nature of the series: JAK1 kinase activity, microfluidic assay (Caliper EZ Reader II). It is filed as biochemical. The note with it: JAK1 5 nM, 1 mM ATP. The essentials:
(§1)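 Human JAK1, JAK2 or TYK2 enzyme was used in 50 mM HEPES, 10 mM MgCl2, 2 mM DTT and 0.01% Brij35, tuned to 10% conversion of a FAM-labelled peptide. Threefold dilutions of compound (top 5 µM, 1% DMSO) were pre-incubated with enzyme for 10 min, and reactions were stopped with EDTA. Phosphorylation was read by microfluidic mobility shift, and IC50 came from percent-inhibition curves.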

The nature of series [2]: Plasma protein binding by equilibrium dialysis. The class given is in vitro ADME. As to conditions: human plasma, equilibrium dialysis 5 hours at 37° C.; read-out: % Bound (human) (converted). The essentials: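 Compound spiked into plasma at 0.2 and 2 μM was dialyzed against PBS for 5 h at 37° C with shaking, in duplicate. Plasma and buffer chambers were matrix-matched, protein-precipitated and analysed by LC-MS/MS to derive % unbound, % bound and % recovery.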

The nature of series [3]: Microsomal metabolic stability assay. As to conditions: pH 7.4, 0.5 mg/mL protein, 1 μM compound. The class given is in vitro ADME. A digest of the protocol: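 Parent loss was tracked by LC/MS/MS at 0, 5, 15, 30 and 45 min, with half-life derived from the ln(% remaining)–time slope. Incubation at 37 °C, pH 7.4 phosphate/EDTA buffer: 0.5 mg/mL microsomes, 1 μM compound, NADPH-regenerated (2 mM).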

Series [4] in a line: Kinetic solubility. It is filed as physicochemical. As to conditions: phosphate buffer, aqueous buffer, kinetic from dmso stock, PBS (pH 7.4), 1% DMSO, room temperature. The procedure:
Aliquots of 8 μL of reference and test compound stock solutions (10 mM/5 mM) are added into 792 μL of 100 mM pH 7.4 phosphate buffer. The final DMSO concentration is 1%. Sample tubes are shaken for 2 hours at 1000 rpm at room temperature. Samples are centrifuged at 12000 rpm for 10 min to precipitate un-dissolved particles. And transfer the supernatants to a new tube or plate. Add 5 μL of samples (no diluted, 10 times diluted and 100 times diluted) and standard curve samples to 95 μL of ACN containing IS for LC-MS/MS analysis.

For series [5], the target named is T2, TYK2 (Homo sapiens, UniProt P29597).
T2 construct: purchased Carna Biosciences
T2 sequence (P29597 whole entry): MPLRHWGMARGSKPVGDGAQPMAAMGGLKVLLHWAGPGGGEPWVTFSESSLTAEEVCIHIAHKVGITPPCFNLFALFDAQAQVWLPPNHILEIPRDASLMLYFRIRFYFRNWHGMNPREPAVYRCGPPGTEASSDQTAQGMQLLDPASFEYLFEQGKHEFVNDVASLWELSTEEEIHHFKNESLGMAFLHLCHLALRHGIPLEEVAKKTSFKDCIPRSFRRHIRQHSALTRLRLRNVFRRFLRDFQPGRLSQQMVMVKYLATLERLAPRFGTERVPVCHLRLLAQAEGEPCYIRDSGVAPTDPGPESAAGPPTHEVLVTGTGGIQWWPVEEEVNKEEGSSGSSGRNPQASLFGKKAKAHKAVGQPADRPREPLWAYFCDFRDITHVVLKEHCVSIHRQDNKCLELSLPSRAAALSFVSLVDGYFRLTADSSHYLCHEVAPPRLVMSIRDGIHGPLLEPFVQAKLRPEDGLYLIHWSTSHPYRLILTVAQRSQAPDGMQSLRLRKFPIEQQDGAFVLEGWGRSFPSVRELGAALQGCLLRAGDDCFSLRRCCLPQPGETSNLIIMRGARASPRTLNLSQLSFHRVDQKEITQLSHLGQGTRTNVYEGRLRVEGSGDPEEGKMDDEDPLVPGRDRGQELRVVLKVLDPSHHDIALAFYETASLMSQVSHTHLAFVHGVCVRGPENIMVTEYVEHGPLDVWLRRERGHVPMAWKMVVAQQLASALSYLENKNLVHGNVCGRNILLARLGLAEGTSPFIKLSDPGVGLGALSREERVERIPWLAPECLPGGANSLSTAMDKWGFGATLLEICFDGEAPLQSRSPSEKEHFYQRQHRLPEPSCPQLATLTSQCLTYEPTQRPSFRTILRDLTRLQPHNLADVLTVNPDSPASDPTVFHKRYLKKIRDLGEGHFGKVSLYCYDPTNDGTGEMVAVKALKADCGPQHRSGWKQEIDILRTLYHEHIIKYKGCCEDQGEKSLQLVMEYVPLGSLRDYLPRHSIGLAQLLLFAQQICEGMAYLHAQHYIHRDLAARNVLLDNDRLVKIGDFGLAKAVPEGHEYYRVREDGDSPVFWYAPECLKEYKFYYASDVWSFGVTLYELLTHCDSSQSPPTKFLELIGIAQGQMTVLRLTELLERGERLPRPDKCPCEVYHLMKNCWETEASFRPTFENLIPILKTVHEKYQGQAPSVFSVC
As to the kind of experiment: TYK2 kinase activity, microfluidic assay (Caliper EZ Reader II). It is filed as biochemical. The note with it: TYK2 1 nM, 1 mM ATP. A digest of the protocol: as §1

The target in series [6] is T3, TYK2-JH2 domain (Homo sapiens, UniProt P29597).
T3 construct: IC50 on JH2 domain activity (nM)
T3 sequence (P29597 589-875 limits assumed): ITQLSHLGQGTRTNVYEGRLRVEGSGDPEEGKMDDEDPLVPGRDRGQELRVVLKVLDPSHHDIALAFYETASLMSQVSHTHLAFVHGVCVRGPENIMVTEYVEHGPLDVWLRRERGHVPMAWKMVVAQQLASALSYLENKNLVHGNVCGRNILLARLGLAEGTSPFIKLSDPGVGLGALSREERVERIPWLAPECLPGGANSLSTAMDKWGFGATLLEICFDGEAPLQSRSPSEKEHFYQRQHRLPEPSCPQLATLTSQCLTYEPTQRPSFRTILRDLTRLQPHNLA
Nature of the series: Binding activity test for JH2 domain of TYK2 (Tb-antibody/tracer FRET). The note with it: for JAK1/TYK2 selectivity: ratio JAK1-JH2 IC50 / TYK2-JH2 IC50. A digest of the protocol: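 FRET read-out after 60 min at 25° C plus overnight at 4° C; tracer displacement detected via Tb-labelled antibody on the JH2 domain. Dose-response used 11 points at 3-fold dilution.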

Series [7] deals with T4, JAK2 (Homo sapiens, UniProt O60674).
T4 construct: purchased Carna Biosciences
T4 sequence (O60674 whole entry): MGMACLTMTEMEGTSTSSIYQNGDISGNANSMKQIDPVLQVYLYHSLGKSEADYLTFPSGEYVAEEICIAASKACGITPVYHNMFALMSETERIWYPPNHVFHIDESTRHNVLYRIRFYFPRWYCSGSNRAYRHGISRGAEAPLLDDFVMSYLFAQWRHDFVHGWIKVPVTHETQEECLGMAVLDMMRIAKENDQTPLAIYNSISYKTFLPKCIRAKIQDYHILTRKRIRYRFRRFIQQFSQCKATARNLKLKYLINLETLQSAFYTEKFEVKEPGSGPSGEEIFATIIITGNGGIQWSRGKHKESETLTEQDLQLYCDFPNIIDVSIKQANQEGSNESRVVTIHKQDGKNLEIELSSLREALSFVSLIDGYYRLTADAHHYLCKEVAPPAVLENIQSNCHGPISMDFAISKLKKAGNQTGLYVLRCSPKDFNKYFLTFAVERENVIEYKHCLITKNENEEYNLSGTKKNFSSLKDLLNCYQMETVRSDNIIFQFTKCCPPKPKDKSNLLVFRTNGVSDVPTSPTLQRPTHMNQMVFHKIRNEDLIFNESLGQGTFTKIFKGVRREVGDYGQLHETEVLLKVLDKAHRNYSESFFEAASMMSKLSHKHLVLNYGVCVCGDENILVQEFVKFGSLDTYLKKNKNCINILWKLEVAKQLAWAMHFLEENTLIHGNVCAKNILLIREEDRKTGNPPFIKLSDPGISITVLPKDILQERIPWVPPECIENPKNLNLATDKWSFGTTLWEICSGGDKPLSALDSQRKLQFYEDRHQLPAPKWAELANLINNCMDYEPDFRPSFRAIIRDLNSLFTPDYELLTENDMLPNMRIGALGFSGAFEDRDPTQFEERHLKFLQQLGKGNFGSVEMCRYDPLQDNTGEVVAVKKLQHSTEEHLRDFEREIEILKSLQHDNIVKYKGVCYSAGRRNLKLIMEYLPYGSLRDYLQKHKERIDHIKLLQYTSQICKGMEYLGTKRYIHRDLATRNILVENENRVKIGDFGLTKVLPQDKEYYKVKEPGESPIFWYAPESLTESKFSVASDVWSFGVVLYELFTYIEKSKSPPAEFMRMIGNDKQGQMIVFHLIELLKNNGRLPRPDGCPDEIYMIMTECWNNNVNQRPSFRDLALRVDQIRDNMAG
Nature of the series: JAK2 kinase activity, microfluidic assay (Caliper EZ Reader II). The class given is biochemical. The note with it: JAK2 0.125 nM, 1 mM ATP. The essentials:
as §1

Setting [8] is: dog liver microsomes, read-out: Dog LM Clint.
Where [9] appears, read: dog liver microsomes, read-out: Dog LM T½.
Setting [10] is: human liver microsomes, read-out: Human LM Clint.
Setting [11] is: human liver microsomes, read-out: Human LM T½.
Setting [12] is: rat liver microsomes, read-out: Rat LM Clint.
The mark [13] stands for this setting: rat liver microsomes, read-out: Rat LM T½.

In brackets after ≈: the same amount, converted by molar mass. Read-outs that look alike come from different tables or passages of the source.

T1 sequence (P23458 whole entry): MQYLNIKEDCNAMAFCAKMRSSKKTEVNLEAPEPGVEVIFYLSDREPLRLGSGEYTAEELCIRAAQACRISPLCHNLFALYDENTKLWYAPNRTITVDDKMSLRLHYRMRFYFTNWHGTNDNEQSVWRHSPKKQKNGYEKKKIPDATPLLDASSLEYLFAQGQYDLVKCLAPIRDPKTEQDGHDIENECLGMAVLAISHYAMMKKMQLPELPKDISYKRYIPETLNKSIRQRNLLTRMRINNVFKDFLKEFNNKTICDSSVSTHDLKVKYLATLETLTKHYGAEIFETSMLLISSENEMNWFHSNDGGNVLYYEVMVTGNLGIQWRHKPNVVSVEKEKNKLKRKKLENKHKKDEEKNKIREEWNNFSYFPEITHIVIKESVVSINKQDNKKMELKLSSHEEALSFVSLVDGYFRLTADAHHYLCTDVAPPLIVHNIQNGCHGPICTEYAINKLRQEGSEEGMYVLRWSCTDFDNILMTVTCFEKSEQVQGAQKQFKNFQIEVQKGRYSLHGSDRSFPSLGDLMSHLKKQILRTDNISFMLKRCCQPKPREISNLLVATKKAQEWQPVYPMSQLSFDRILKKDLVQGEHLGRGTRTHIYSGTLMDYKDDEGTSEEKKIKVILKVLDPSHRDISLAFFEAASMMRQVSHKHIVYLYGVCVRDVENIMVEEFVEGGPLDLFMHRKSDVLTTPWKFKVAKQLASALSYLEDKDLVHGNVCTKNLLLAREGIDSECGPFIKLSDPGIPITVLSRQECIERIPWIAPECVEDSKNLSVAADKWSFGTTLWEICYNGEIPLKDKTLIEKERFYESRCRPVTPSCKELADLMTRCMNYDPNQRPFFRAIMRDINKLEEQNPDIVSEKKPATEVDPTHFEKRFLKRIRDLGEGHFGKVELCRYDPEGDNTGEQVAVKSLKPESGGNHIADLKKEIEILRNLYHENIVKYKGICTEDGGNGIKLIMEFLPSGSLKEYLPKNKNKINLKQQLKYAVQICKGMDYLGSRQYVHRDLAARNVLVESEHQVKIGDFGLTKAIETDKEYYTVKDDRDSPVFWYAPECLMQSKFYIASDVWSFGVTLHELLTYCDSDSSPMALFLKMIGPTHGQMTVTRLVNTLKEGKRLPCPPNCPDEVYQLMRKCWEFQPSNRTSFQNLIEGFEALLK

As a reminder, the IC50 is the concentration needed to halve the response being measured. As usually defined, the solubility is how much of the substance goes into solution per volume. A high value points to much dissolved substance. On to `[2H]C([2H])([2H])NC(=O)c1cnc(NC(=O)C2CC2)cc1Nc1ccc2cnn(CC)c2c1OC` [Example 44, 6-(Cyclopropanecarboxamido)-4-((1-ethyl-7-methoxy-1H-indazol-6-yl)amino)-N-(methyl-d3)nicotinamide], for which the IC50 in series [1] is over 5000 nM; in series [5] it was over 5000 nM; in series [6] it was 0.286 nM; in series [7], over 5000 nM. The fraction unbound at 5 h in series [2] is 0.068. Further, the microsomal CLint at 1 μM in series [3] (setting [8]) amounted to 66.8 µL/min/mg; in series [3] (setting [10]), 19.4 µL/min/mg; in series [3] (setting [12]) it was 111 µL/min/mg. The results for the half-life at 1 μM in series [3] (setting [9]), in series [3] (setting [11]) and in series [3] (setting [13]) were 20.7 min, 71.5 min and 12.5 min, respectively. Besides, in series [4], the solubility at 2 h worked out at 38.7 µM (≈ 15.9 µg/mL). Besides, the JAK1/TYK2 selectivity in series [6] is listed as 34.6.
For `[2H]C([2H])([2H])NC(=O)c1cnc(NC(=O)C2CC2)cc1Nc1ccc2cnn(CC(F)(F)F)c2c1OC` [Example 129, 6-(Cyclopropanecarboxamido)-4-((7-methoxy-1-(2,2,2-trifluoroethyl)-1H-indazol-6-yl)amino)-N-(methyl-d3)nicotinamide], the fraction unbound at 5 h in series [2] was 0.034. Further, the microsomal CLint at 1 μM in series [3] (setting [8]) is 48.6 µL/min/mg; in series [3] (setting [10]), 40 µL/min/mg; in series [3] (setting [12]), 87.4 µL/min/mg. In addition, the half-life at 1 μM came out at 28.5 min in series [3] (setting [9]), 34.6 min in series [3] (setting [11]) and 15.9 min in series [3] (setting [13]). The compound also had a solubility at 2 h in series [4] of 13.6 µM (≈ 6.33 µg/mL). This compound showed a concentration for half-maximal inhibition (IC50) in series [6] of 0.416 nM. Also, the JAK1/TYK2 selectivity in series [6] stood at 49.9.
Regarding `[2H]C([2H])([2H])NC(=O)c1cnc(NC(=O)C2CC2)cc1Nc1ccn2ncc(C#N)c2c1OC` [Example 165, 4-((3-Cyano-4-methoxypyrazolo[1,5-a]pyridin-5-yl)amino)-6-(cyclopropanecarboxamido)-N-(methyl-d3)nicotinamide], the IC50 in series [1] was over 5000 nM; in series [5], over 5000 nM; in series [6], 0.278 nM; in series [7], over 5000 nM. The fraction unbound at 5 h in series [2] is 0.107. The values for the microsomal CLint at 1 μM in series [3] (setting [8]), in series [3] (setting [10]) and in series [3] (setting [12]) were 14.3 µL/min/mg, 36.9 µL/min/mg and 43.6 µL/min/mg, respectively. Moreover, the half-life at 1 μM in series [3] (setting [9]) came to 99.7 min; in series [3] (setting [11]), 38 min; in series [3] (setting [13]), 32 min. The JAK1/TYK2 selectivity in series [6] is recorded as 67.0.
Regarding `[2H]C([2H])([2H])NC(=O)c1cnc(NC(=O)C2CC2)cc1Nc1ncc2cnn(CC)c2c1OC` [Example 262, 6-(Cyclopropanecarboxamido)-4-((1-ethyl-7-methoxy-1H-pyrazolo[4,3-c]pyridin-6-yl)amino)-N-(methyl-d3)nicotinamide], the IC50 in series [1] was over 5000 nM; in series [5], over 5000 nM; in series [6] it was 0.22 nM; in series [7], over 5000 nM. In addition, the fraction unbound at 5 h in series [2] is 0.124. Also, the solubility at 2 h in series [4] is 17.6 µM (≈ 7.28 µg/mL). Further, the JAK1/TYK2 selectivity in series [6] worked out at 67.1.
`[2H]C([2H])([2H])NC(=O)c1cnc(Nc2ccc(F)cn2)cc1Nc1nn(C)c2ccn(CC)c(=O)c12` [Example 139, 4-((5-Ethyl-1-methyl-4-oxo-4,5-dihydro-1H-pyrazolo[4,3-c]pyridin-3-yl)amino)-6-((5-fluoropyridin-2-yl)amino)-N-(methyl-d3)nicotinamide]: the fraction unbound at 5 h in series [2] was 0.039. Besides, the microsomal CLint at 1 μM in series [3] (setting [10]) was 23.3 µL/min/mg. In addition, the half-life at 1 μM in series [3] (setting [11]) was determined as 59.8 min. Moreover, in series [6], the IC50 worked out at 0.524 nM and the JAK1/TYK2 selectivity was found to be 23.6.

The values are drawn from US20250115597A1, “TYK2 INHIBITORS AND COMPOSITIONS AND METHODS THEREOF” (LYNK PHARMACEUTICALS CO. LTD., priority 2021, published 2025).
